Patent US20230257347A1 (priority 2020, published 2023)
Structures can show the parent of a compound that is named as a salt.

Experiments:
human 5-HT2A = biological target: T1, human 5-HT2A (Homo sapiens, UniProt P28223); test: 5-HT2A agonist effect measured by HTRF as changes in IP1, HEK-293 cells; assay type: cell-based; conditions: 3.0E-05 M; control 10 μM serotonin; 30 min at 37° C.; duplicate averaged
T1 construct: expressed in transfected cells; host or cells: HEK-293
Procedure: Potential agonist effects of BK-5F-NM-AMT, BK-5F-NM-AMT, and BK-5F-NM-AMT at 5-HT2A receptors was measured by HTRF as changes in IPl. The effects were measured using human 5-HT2A expressed in HEK-293 cells, based on methods reported in Porter et al. British Journal of Pharmacology, 1999. 128(1), 13-20. Incubation was 30 min at 37° C. 10 μM serotonin was used as a positive control. The tryptamine derivatives were each tested at six concentrations from 3.0E-10 to 3.0E-05 M using log steps. All assays were performed in duplicate with results averaged.

Cyclooxygenase 2 (COX2) = biological target: T2, Cyclooxygenase 2 (COX2) (Homo sapiens, UniProt P35354); test: Enzymatic assay, COX2; assay type: biochemical
T2 construct: purchased BPS Bioscience
T2 sequence (P35354 18-604): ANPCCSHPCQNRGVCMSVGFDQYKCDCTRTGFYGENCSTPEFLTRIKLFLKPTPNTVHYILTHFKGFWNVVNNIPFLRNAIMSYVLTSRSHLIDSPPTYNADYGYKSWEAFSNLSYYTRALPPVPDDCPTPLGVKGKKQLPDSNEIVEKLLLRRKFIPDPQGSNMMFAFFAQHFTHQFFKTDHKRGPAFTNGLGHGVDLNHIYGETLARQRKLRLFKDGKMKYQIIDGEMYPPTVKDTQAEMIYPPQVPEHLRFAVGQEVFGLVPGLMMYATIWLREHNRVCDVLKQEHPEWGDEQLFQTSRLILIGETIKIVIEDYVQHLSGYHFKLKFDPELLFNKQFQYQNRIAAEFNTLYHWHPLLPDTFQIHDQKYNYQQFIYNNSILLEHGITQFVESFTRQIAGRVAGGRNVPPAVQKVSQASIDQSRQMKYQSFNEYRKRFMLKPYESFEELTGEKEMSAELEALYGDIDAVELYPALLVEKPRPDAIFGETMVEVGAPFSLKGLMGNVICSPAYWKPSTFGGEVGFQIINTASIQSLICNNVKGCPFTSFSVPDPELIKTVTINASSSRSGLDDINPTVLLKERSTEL

[1] = biological target: T3, CGMP-inhibited cyclic nucleotide phosphodiesterase 3A (PDE3A) (Homo sapiens, UniProt Q14432); test: Enzymatic assay, PDE3A; assay type: biochemical
T3 construct: purchased Signal Chem

[2] = biological target: T4, Adrenergic Receptor α1A (ADRA1A) (Homo sapiens, UniProt P35348); test: Calcium flux assay, ADRA1A; assay type: cell-based
T4 sequence (P35348 1-466): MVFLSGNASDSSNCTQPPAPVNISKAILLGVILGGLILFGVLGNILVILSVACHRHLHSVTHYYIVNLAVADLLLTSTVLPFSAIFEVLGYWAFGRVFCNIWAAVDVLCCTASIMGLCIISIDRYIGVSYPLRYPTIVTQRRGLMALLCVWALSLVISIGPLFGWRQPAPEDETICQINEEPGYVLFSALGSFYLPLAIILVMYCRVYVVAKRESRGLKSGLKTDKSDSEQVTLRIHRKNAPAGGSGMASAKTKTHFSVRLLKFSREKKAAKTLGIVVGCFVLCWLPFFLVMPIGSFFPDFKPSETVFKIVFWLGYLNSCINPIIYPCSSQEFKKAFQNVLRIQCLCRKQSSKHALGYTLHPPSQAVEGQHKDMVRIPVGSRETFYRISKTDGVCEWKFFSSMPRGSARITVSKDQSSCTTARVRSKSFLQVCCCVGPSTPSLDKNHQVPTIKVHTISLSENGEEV

[3] = biological target: T5, Insulin Receptor (tyrosine kinase) (INSR) (Homo sapiens, UniProt P06213); test: KINOMEscan binding assay, INSR
T5 construct: made in house; host or cells: E. coli BL21-derived host (T7 phage) or HEK-293
T5 sequence (P06213 28-1382): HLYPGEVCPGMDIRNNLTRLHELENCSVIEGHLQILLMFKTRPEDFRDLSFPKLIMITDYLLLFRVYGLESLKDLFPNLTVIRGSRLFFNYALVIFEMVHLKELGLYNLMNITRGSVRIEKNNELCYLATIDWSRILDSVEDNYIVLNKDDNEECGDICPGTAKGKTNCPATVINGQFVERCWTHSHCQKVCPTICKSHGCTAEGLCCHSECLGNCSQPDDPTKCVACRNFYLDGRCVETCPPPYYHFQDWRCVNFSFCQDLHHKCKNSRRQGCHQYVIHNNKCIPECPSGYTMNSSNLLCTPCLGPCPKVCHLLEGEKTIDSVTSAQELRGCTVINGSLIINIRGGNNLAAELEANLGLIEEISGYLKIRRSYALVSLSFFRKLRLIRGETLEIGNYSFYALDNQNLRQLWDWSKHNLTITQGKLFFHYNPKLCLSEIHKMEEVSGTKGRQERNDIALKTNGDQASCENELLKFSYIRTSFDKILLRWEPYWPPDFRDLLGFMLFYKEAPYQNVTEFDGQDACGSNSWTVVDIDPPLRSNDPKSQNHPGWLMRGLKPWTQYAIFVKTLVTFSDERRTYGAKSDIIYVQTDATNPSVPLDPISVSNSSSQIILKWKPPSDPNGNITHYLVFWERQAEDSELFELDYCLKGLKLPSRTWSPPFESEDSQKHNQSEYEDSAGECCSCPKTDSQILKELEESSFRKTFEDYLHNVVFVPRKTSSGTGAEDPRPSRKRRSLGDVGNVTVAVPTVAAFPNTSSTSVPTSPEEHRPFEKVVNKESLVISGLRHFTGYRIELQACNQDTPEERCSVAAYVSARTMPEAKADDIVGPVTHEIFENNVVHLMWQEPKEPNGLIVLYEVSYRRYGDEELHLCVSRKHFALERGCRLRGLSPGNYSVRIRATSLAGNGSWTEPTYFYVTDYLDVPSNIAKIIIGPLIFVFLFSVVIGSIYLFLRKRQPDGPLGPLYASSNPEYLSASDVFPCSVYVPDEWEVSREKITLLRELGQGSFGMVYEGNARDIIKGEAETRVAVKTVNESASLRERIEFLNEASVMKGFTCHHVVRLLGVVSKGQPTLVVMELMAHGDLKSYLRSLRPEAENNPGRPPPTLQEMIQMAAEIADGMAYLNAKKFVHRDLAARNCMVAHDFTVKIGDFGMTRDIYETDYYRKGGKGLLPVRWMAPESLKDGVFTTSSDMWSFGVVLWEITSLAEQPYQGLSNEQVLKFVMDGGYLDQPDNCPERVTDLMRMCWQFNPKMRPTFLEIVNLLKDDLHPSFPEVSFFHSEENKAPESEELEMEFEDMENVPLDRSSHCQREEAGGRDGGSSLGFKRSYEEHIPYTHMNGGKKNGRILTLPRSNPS

[4] = biological target: T6, Voltage-gated L-type calcium channel (CAV1.2) (Homo sapiens, UniProt Q13936); test: Ion channel assay, CAV1.2; assay type: cell-based
T6 construct: expressed in transfected cells
T6 sequence (Q13936 whole entry, looked up): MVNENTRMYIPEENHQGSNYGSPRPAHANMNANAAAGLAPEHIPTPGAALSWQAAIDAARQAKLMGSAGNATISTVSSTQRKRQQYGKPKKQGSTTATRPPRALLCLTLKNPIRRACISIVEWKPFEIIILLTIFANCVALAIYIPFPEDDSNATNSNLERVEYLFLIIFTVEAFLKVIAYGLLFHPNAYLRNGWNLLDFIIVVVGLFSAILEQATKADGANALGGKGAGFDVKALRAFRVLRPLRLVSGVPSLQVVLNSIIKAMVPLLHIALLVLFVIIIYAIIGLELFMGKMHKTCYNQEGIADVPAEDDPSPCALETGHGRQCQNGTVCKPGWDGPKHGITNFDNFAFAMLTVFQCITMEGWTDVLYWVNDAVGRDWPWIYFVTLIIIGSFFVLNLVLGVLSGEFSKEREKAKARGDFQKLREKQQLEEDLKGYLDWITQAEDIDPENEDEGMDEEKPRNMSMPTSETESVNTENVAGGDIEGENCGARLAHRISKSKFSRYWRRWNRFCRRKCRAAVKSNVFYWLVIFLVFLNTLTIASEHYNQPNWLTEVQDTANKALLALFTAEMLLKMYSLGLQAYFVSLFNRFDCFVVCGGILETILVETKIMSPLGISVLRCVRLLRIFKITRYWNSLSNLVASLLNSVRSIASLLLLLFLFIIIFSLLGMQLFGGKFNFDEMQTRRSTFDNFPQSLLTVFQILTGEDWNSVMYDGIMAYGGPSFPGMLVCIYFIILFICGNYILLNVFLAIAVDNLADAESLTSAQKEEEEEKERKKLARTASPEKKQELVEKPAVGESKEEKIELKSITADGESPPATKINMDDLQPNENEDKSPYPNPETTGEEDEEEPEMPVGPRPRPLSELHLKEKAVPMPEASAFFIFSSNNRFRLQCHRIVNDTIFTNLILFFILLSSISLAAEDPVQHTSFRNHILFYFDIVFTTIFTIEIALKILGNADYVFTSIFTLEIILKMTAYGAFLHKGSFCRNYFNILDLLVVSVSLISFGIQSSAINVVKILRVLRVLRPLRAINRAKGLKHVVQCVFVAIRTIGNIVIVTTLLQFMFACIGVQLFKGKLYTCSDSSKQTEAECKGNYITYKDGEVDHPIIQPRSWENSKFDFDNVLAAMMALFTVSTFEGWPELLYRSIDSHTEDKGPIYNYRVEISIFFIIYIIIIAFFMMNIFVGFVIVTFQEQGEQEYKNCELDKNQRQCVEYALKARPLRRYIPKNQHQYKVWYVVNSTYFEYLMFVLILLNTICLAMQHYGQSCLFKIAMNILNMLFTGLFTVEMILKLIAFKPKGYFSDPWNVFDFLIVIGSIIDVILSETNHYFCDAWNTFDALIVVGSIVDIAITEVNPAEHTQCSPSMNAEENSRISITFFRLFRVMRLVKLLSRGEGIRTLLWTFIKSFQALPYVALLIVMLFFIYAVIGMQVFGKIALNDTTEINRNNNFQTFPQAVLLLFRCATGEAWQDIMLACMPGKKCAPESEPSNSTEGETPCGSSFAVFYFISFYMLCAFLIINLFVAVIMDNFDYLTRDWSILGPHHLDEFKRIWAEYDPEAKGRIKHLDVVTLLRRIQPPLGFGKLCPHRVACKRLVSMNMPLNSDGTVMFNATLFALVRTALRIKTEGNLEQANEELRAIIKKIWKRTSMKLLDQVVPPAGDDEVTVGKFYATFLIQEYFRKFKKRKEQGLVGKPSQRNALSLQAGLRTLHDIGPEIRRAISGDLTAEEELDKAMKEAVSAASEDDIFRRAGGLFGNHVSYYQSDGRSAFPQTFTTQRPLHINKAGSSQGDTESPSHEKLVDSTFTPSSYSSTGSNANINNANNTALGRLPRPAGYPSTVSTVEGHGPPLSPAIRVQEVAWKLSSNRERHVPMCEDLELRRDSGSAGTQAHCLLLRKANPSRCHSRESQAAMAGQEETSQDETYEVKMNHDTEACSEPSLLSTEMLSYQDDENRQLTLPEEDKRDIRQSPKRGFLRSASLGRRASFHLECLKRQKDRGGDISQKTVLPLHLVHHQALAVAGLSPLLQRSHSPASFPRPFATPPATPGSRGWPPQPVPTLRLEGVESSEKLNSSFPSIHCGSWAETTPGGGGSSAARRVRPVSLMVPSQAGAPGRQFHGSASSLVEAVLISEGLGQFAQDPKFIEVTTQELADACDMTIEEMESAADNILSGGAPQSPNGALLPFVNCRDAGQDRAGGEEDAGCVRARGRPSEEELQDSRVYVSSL

[5] = biological target: 5-Hydroxytryptamine (Serotonin) Receptor 2B (5-HT2B) (Homo sapiens, UniProt P41595); test: Calcium flux secondary messenger assay, 5-HT2B; assay type: cell-based
5-Hydroxytryptamine (Serotonin) Receptor 2B (5-HT2B), sequence (P41595 whole entry): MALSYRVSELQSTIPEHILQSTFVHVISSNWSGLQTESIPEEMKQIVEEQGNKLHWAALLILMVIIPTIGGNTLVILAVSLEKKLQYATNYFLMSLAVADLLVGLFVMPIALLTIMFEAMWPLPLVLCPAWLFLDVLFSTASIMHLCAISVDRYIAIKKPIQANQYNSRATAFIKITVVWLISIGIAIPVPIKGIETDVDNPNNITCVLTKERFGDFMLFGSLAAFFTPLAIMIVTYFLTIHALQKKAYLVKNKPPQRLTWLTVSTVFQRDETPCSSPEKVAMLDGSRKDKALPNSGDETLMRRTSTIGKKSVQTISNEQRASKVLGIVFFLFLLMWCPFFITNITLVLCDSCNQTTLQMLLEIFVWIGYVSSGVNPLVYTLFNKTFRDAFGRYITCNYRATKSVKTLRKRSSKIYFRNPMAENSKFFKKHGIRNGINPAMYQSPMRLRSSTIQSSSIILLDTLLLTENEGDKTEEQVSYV

MDMA-trained rats = test: Drug discrimination in rats trained to distinguish MDMA from placebo; assay type: in vivo; conditions: 1, 2, and 4 mg/kg intraperitoneal

T1 sequence (P28223 whole entry, looked up): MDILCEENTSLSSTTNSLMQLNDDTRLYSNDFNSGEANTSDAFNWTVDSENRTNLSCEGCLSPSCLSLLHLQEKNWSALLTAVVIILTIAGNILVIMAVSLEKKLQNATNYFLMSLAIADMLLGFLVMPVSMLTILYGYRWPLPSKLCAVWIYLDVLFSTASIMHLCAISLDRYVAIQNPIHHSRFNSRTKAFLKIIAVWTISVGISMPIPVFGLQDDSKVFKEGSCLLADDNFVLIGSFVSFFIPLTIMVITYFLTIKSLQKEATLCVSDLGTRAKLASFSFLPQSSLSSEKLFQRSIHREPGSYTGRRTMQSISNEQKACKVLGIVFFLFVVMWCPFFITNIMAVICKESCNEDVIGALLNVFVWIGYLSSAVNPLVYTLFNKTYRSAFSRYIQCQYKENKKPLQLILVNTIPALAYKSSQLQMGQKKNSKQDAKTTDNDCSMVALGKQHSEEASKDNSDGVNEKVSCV

| Structure (SMILES) | Signal changes at the highest tested concentration (human 5-HT2A) | IC50 (Cyclooxygenase 2 (COX2)) [µM] | IC50 [1] [µM] | EC50 [2] [µM] | IC50 [2] [µM] | IC50 [3] [µM] | IC50 [4] [µM] | EC50 [5] [µM] | IC50 [5] [nM] | percent responses on the MDMA-associated lever (MDMA-trained rats; 30 min prior to test, four MDMA-trained rats) | rate of lever pressing (responses per second) (MDMA-trained rats; control measure) |
| --- | --- | --- | --- | --- | --- | --- | --- | --- | --- | --- | --- |
| CNC(C)C(=O)c1c[nH]c2ccc(Br)cc12 (centres unmarked) [BK-5Br-NM-AMT, 1-(5-bromo-1H-indol-3-yl)-2-(methylamino) propan-1-one hydrochloride] | −1.1 % of control | > 10 | > 10 | 8.24 | > 10 | > 10 | > 10 | > 10 | 44.7 | – | – |
| CNC(C)C(=O)c1c[nH]c2ccc(Cl)cc12 (centres unmarked) [BK-5Cl-NM-AMT, 1-(5-chloro-1H-indol-3-yl)-2-(methylamino) propan-1-one hydrochloride] | 1.3 % of control | > 10 | > 10 | > 10 | > 10 | > 10 | > 10 | > 10 | 92.1 | – | – |
| CNC(C)C(=O)c1c[nH]c2ccc(F)cc12 (centres unmarked) [BK-5F-NM-AMT, 1-(5-Fluoro-1H-indol-3-yl)-2-(methylamino) propan-1-one hydrochloride] | −0.8 % of control | > 10 | > 10 | > 10 | > 10 | > 10 | > 10 | > 10 | 586 | significantly and dose-dependently different from those of MDMA | not altered |
